Experimental data as given in patent US8163776B2, “Method of immunomodulation using thione-forming disulfides” (Grassetti family Trust, priority 2001, dated 2012).
Values joined by “and” are separate entries in the source; they are usually repeats but may differ in a detail not shown here. Equal values may be shown once.

What was measured:
[1] = system: splenocytes; test: Total splenocyte (lymphocyte) count, trypan blue exclusion; assay type: in vivo, BALB/c mice; details: for Total Lymphocyte Counts: spleen
Method: Splenocytes were isolated by obtaining spleen from the sacrificed mice on the same experimental day, homogenizing the spleen using a 50-M mesh screen, and suspending the homogenate in 25 ml of RPMI 1640. The splenocyte suspension was washed and then spun at 1200 rpm for 5 minutes. The red blood cells were lysed by an osmotic choc with distilled water. The splenocyte suspension was washed and spun at 1200 rpm for 5 minutes. The splenocytes were suspended in complete RPMI media (90% RPMI 1640, 10% FBS, antibiotics 1×, HEPES 1 mM) and the suspension was filtered through cotton wool. Cells were counted using trypan blue exclusion method. Total splenocyte count was recorded (Table 7). Cells were kept on ice and diluted to the appropriate concentration for the corresponding experimental procedures.
To count splenocytes, two chambers of the hemacytometer were counted and the mean was calculated. The total splenocyte count was calculated by the following formula: Total splenocyte count=mean count×10 (dilution factor)×10^4×suspension volume. The mean was calculated for each control and treated group. Student's T test was performed between the control group and the treated group. The p value was calculated for statistical significance. Following spleen homogenization, the total number of splenocytes isolated was counted using a standard trypan blue method which discriminates between viable and non viable cells.

[2] = system: lymphocytes; test: Mitogenic proliferation of splenocytes (3H-thymidine incorporation); assay type: in vivo, BALB/c mice
Method: Splenocytes were diluted to a concentration of 1×10^6 cells/ml in complete RPMI media. Aliquots of 100 μl were transferred into a 96 well flat bottom plate. Mitogen stock solutions were prepared at a concentration of 1 mg/ml in D-PBS and frozen at −20° C. Working solution were prepared freshly in complete RPMI media at the following concentration (10×): 500 μg/ml PHA, 50 μg/ml concanavalin A (con A), and 50 μg/ml LPS. Aliquots of 100 μl of each mitogens were transferred in triplicate in the corresponding wells. Final concentration (1×) in each well was 50 μg/ml PHA, 5 μg/ml con A, and 5 μg/ml LPS. For negative control, 100 μl of complete RPMI media was added in triplicate, instead of the mitogens. Cells were incubated for a total of 72 hours in 37° C., 5% CO2, humidified incubator. Twenty hours before the end of the incubation, 1 μCi per well of ^3H-thymidine was added to each well. Cells were harvested using a Harvester® 96 from Tomtec. Filters were transferred into scintillation vials. Scintillation liquid, 4 ml was added to each vial. Radioactivity was counted using Beckman LS-6500 Beta counter. The results were expressed in CPM. The mean and standard deviation of triplicate samples are calculated. Results are expressed as stimulation index (SI) as follows:
[formula] • where experimental value=with mitogens (PHA, ConA and LPS) and control value=with RPMI. For each mitogen, results were compared and Student's T test was performed between the control group and the treated group. The p value was calculated for statistical significance.
The lymphoproliferative response is a widely studied function of T and B lymphocytes. Three different mitogens with different specificity for different lymphocyte subsets were used. PHA and ConA are standard mitogens that stimulate mice T cells and LPS is a mitogen which stimulates B cells. Results are expressed in proliferation capacity (Table 10 and FIGS. 5 and 6). […] This potential may present some therapeutic application against some immune dysfunctions where the lymphoproliferative response is impaired (e.g., viral infections).

[3] = 30 days on CPDS diet vs normal diet
[4] = 30 days on CPDS diet, Mean ± S.D.
[5] = Group 6, 6 days on CPDS diet, Mean ± S.D.

O=C(O)c1ccc(SSc2ccc(C(=O)O)cn2)nc1 [CPDS, 6,6′-dithiodinicotinic acid]
Total Lymphocyte Counts, variation ([1]; Group 2, 30 days on CPDS diet vs group 1 (normal diet)): −15.58%
Total Lymphocyte Counts ([1]; Group 2, 30 days on CPDS diet, group Mean): 5.01 × 10^7
Total Lymphocyte Counts ([1]; Group 2, 30 days on CPDS diet, individual mice): 3.94 × 10^7 and 5.18 × 10^7 and 6.03 × 10^7 and 4.47 × 10^7 and 5.54 × 10^7 and 5.91 × 10^7 and 4.77 × 10^7 and 4.25 × 10^7
Total Lymphocyte Counts, variation ([1]; Group 6, 6 days on CPDS diet vs group 5 (normal diet)): −30.97%
Total Lymphocyte Counts ([1]; Group 6, 6 days on CPDS diet, group Mean): 4.16 × 10^7
Total Lymphocyte Counts ([1]; Group 6, 6 days on CPDS diet, individual mice): 3.08 × 10^7 and 4.58 × 10^7
Necrosis or loss of splenocyte viability ([1]; after 6 and 30 days CPDS diet): No signs of necrosis or loss of splenocyte viability were observed
Mitogenic Proliferation (SI), LPS, effect of CPDS diet ([2]; 6 days, n=3): No effect
Mitogenic Proliferation (SI), PHA, effect of CPDS diet ([2]; 6 days, n=3): No effect
Mitogenic Proliferation, LPS ([2]; 30 days on CPDS diet (samples G2-1 to G2-8), individual mice, 5 μg/ml LPS): 3799.3 and 1426.0 and 4760.0 and 4304.7 and 842.0 and 1407.3 and 2438.0 and 2039.3
Mitogenic Proliferation, CON A ([2]; 30 days on CPDS diet (samples G2-1 to G2-8), individual mice, 5 μg/ml con A): 6928.7 and 2621.3 and 11240.7 and 8041.3 and 915.3 and 1023.3 and 3308.7 and 4993.3
Mitogenic Proliferation, PHA ([2]; 30 days on CPDS diet (samples G2-1 to G2-8), individual mice, 50 μg/ml PHA): 3565.3 and 1168.0 and 2175.3 and 2300.0 and 603.3 and 717.3 and 1652.6 and 886.0
Mitogenic Proliferation, No stimulation ([2]; 30 days on CPDS diet (samples G2-1 to G2-8), individual mice, no unit in table, method: CPM): 78.0 and 69.3 and 66.7 and 82.0 and 57.3 and 72.7 and 72.0 and 58.7
Mitogenic Proliferation, CON A, Variation(%) [2, 3]: 210.2%
Mitogenic Proliferation, LPS, Variation(%) [2, 3]: 82.0%
Mitogenic Proliferation, No stimulation, Variation(%) [2, 3]: 0.2%
Mitogenic Proliferation, PHA, Variation(%) [2, 3]: 144.4%
Mitogenic Proliferation, CON A [2, 4]: 4984.1 ± 3641
Mitogenic Proliferation, LPS [2, 4]: 2627.1 ± 1475
Mitogenic Proliferation, No stimulation [2, 4]: 69.6 ± 8
Mitogenic Proliferation, PHA [2, 4]: 1633.4 ± 1010
Mitogenic Proliferation (SI), LPS, effect of CPDS diet ([2]; 30 days, n=8, arrow image = increase): tendency to increase
Mitogenic Proliferation, CON A [2, 5]: 4441.8 ± 1733
Mitogenic Proliferation, LPS [2, 5]: 937.9 ± 232
Mitogenic Proliferation, No stimulation [2, 5]: 50.5 ± 23
Mitogenic Proliferation, PHA [2, 5]: 205.3 ± 74
Mitogenic Proliferation, LPS ([2]; Group 6, 6 days on CPDS diet, individual mice, 5 μg/ml LPS, no unit in table, method: CPM): 1052.0 and 670.0 and 1091.3
Mitogenic Proliferation, CON A ([2]; Group 6, 6 days on CPDS diet, individual mice, 5 μg/ml con A, no unit in table, method: CPM): 4876.7 and 2532.0 and 5916.7
Mitogenic Proliferation, PHA ([2]; Group 6, 6 days on CPDS diet, individual mice, 50 μg/ml PHA, no unit in table, method: CPM): 237.3 and 120.0 and 258.7
Mitogenic Proliferation, No stimulation ([2]; Group 6, 6 days on CPDS diet, individual mice, no unit in table, method: CPM): 78.0 and 34.7 and 38.7
Proliferation with all three mitogens (PHA, ConA, LPS), in words ([2]; after 6 days of treatment with CPDS): tendency towards an increase
